For one data set, the target named is T1, CSF-1R (Homo sapiens, UniProt P07333).
T1 construct: purchased Reaction Biology Corp. (Kinase HotSpot service)
Kind of data set: protein kinase profile for 50 selected protein Kinase (FIG. 5), CSF-1R. The class given is biochemical. Conditions: single-dose concentration 1.0 μM.

The target in a further data set is T2, FMS (h) (Homo sapiens, UniProt P07333).
T2 construct: purchased Reaction Biology Corp. (Kinase HotSpot service)
In words: Kinase HotSpot radiometric assay, activity on CSF-1R (FMS). The class given is biochemical.

The target of a further data set is T3, Lyn (Homo sapiens, UniProt P07948).
T3 construct: purchased Reaction Biology Corp. (Kinase HotSpot service)
Kind of data set: protein kinase profile for 50 selected protein Kinase (FIG. 5), Lyn. The class given is biochemical. Conditions: single-dose concentration 1.0 μM.

The target of another data set is T4, BRafV600E (Homo sapiens, UniProt P15056, V600E).
T4 construct: purchased Reaction Biology Corp. (Kinase HotSpot service)
In words: protein kinase profile for 50 selected protein Kinase (FIG. 5), BRafV600E. Conditions: single-dose concentration 1.0 μM. Format: biochemical.

The next data set concerns the target T5, CRaf (Homo sapiens, UniProt P04049).
T5 construct: purchased Reaction Biology Corp. (Kinase HotSpot service)
Kind of data set: protein kinase profile for 50 selected protein Kinase (FIG. 5), CRaf. The class given is biochemical. Conditions: single-dose concentration 1.0 μM.

The nature of the next data set: metabolic stability (MS). Format: in vitro ADME.
The next data set can be described thus: PAMPA assay. Format: in vitro ADME. Particulars: read-out: PAMPA assay Pe Avg.
The nature of another data set: plasma stability (PS). The class given is in vitro ADME.
In another data set the test system is EMS and FLT3. In words: Protein Kinase Profiling analysis, selectivity (FIG. 4). The class given is biochemical.
[1] abbreviates: Table 3, read-out: IC50 (M) on FMS.

We go through 14 compounds from patent US20240308994A1, “ISOXAZOLE DERIVATIVE OR PHARMACEUTICALLY ACCEPTABLE SALT THEREOF AND USE THEREOF” (INDUSTRY-UNIVERSITY COOPERATION FOUNDATION HANYANG …, priority 2021, published 2024).

Structures are written as SMILES. Like-named read-outs stand apart in the source and are kept apart here.

T2 sequence (P07333 20-972): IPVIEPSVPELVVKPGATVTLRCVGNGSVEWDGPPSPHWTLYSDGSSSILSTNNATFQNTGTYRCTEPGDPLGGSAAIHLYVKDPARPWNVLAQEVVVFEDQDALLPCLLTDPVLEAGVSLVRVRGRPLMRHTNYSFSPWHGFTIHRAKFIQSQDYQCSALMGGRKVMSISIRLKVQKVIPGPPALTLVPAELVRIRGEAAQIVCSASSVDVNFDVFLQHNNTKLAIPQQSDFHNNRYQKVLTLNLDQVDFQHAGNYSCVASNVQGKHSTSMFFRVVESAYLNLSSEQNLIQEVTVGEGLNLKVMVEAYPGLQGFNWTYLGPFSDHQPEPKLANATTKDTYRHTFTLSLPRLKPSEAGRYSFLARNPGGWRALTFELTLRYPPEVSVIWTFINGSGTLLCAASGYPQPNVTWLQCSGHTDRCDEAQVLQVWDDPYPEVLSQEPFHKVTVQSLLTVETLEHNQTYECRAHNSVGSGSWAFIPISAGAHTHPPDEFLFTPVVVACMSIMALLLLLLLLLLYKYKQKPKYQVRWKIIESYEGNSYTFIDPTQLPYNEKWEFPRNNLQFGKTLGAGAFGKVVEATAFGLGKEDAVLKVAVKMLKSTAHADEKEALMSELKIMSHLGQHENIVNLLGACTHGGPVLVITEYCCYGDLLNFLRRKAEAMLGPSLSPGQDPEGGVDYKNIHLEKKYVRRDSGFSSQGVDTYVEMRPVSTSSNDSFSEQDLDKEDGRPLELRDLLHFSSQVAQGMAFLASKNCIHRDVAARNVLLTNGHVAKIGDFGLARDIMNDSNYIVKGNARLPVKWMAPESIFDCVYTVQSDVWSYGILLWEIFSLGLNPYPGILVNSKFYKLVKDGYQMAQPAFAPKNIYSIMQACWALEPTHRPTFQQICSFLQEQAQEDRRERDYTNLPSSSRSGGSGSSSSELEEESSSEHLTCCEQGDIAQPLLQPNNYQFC
T5 sequence (P04049 whole entry): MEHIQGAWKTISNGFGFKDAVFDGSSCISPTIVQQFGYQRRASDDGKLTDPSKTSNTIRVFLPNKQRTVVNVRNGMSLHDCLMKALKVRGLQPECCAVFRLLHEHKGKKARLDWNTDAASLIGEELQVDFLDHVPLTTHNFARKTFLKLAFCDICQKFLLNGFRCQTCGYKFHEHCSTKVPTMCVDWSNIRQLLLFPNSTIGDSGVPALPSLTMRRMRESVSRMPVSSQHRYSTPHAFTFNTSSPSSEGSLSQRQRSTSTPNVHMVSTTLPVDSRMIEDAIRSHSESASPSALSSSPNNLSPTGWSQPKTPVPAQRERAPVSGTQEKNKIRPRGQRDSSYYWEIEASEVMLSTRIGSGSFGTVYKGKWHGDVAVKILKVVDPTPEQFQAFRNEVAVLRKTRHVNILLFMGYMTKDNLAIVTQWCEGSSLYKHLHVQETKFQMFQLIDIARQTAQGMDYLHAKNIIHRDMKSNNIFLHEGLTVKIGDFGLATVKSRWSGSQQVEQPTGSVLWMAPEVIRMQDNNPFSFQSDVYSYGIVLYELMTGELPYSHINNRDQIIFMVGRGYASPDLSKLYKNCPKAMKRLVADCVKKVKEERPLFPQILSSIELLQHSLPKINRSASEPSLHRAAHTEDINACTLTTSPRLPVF
T1 sequence (P07333 20-972): as the sequence (P07333 20-972) above
T4 sequence (P15056 416-766 V600E limits assumed): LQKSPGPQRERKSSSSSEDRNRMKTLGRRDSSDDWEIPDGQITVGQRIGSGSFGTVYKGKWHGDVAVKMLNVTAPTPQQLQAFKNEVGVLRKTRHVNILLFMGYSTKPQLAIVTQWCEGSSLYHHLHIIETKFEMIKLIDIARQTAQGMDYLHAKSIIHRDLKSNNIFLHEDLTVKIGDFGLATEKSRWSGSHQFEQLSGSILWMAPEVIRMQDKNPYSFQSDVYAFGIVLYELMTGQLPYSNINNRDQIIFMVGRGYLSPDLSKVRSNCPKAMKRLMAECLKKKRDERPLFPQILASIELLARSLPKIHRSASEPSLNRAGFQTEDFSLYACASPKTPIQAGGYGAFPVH
T3 sequence (P07948 whole entry): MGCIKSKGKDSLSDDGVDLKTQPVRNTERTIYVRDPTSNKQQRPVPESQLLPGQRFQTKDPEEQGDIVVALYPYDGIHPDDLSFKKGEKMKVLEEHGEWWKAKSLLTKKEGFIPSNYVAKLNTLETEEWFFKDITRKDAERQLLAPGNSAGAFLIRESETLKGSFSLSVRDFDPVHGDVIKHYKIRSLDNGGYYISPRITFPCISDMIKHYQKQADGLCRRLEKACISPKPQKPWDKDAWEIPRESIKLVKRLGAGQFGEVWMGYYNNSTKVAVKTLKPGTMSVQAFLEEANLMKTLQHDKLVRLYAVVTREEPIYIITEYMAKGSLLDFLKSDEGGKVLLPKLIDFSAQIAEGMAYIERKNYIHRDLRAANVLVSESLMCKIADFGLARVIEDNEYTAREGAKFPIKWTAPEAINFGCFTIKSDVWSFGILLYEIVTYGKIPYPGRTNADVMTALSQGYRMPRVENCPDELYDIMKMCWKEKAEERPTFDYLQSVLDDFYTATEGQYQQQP

Regarding `Cc1ccc(NC(=O)c2cc(N3CCN(C)CC3)cc(C(F)(F)F)c2)cc1NC(=O)c1cnoc1C` [Comparative example 1, reference compound], the “inhibitory activity against CSF-1R” value on CSF-1R is “inhibitory activity”. Also, on FMS (h) (Table 5, read-out: IC50 on CSF-1R), the IC50 was determined as 1.03e-08 M. Also, the “inhibitory activity against Lyn” value at Lyn is reported as “inhibitory activity”. Also, on BRafV600E, the “inhibitory activity against BRafV600E” value was “inhibitory activity”. The “inhibitory activity against CRaf” value against CRaf is listed as “inhibitory activity”. The “MS (human) %@60 min” value in the data set “metabolic stability (MS)” was less than 10%.
With `Cc1cc(C(=O)Nc2cc(NC(=O)c3cc(N4CCN(C)CC4)cc(C(F)(F)F)c3)ccc2C)no1` [Compound 5a, 5-methyl-N-(2-methyl-5-(3-(4-methylpiperazin-1-yl)-5-(trifluoromethyl)benzamido)phenyl)isoxazole-3-carboxamide], the Papp in “PAMPA assay” was 55.5 ×10⁻⁶ cm/s. In the data set “plasma stability (PS)” (30 min), the PS (human) @30 min is more than 100%. The same compound showed a PS (human) @60 min in the data set “plasma stability (PS)” (60 min) of more than 100%.
On to `Cc1cc(C(=O)Nc2ccc(C3CCN(CC4CC4)CC3)cc2C2=CCC(C)(C)CC2)no1` [Compound 78b, N-(5-(1-(cyclopropylmethyl)piperidin-4-yl)-4′,4′-dimethyl-2′,3′,4′,5′-tetrahydro-[1,1′-biphenyl]-2-yl)-5-methylisoxazole-3-carboxamide], for which the IC50 was less than 1e-07 M at FMS (h) (Table 1, read-out: IC50) and less than 1e-07 M at FMS (h) (setting [1]).
Take `Cc1cc(C(=O)Nc2ccc(C3CC[N+](C)(C)CC3)cc2C2=CCCCC2)no1` [Compound 79b, 1,1-dimethyl-4-(6-(5-methylisoxazole-3-carboxamido)-2′,3′,4′,5′-tetrahydro-[1,1′-biphenyl]-3-yl)piperidin-1-ium]: at FMS (h) (setting [1]), the IC50 was less than 1e-07 M.
As to `Cc1cc(C(=O)Nc2ccc(C3CCC[N+](C)(C)CC3)cc2C2=CCCCC2)no1` (stereo not drawn) [Compound 79c, 1,1-dimethyl-4-(6-(5-methylisoxazole-3-carboxamido)-2′,3′,4′,5′-tetrahydro-[1,1′-biphenyl]-3-yl)azepan-1-ium], on FMS (h) (setting [1]), the IC50 is less than 1e-07 M.
The same measure, in the same setting: the result for `Cc1cc(C(=O)Nc2ccc(C3CCC[N+](C)(C)CC3)cc2C2=CCC(C)(C)CC2)no1` (stereo not drawn) [Compound 80c, 4-(4′,4′-dimethyl-6-(5-methylisoxazole-3-carboxamido)-2′,3′,4′,5′-tetrahydro-[1,1′-biphenyl]-3-yl)-1,1-dimethylazepan-1-ium] reads less than 1e-07 M.
Turning to `Cc1cc(C(=O)Nc2ccc(C3CC[N+](C)(C)CC3)cc2C2CCCCC2)no1` [Compound 81b, 4-(3-cyclohexyl-4-(5-methylisoxazole-3-carboxamido)phenyl)-1,1-dimethylpiperidin-1-ium], the IC50 on FMS (h) (setting [1]) was 1e-07 to 1e-06 M.
The same measure, in the same setting: to `CC[N+]1(CC)CCC(c2ccc(NC(=O)c3cc(C)on3)c(C3=CCCCC3)c2)CC1` [Compound 82b, 1,1-diethyl-4-(6-(5-methylisoxazole-3-carboxamido)-2′,3′,4′,5′-tetrahydro-[1,1′-biphenyl]-3-yl)piperidin-1-ium] belongs less than 1e-07 M; to `CC(=O)N1CCC(c2ccc(NC(=O)c3cc(C)on3)c(C3=CCCCC3)c2)CC1` [Compound 83b, N-(5-(1-acetylpiperidin-4-yl)-2′,3′,4′,5′-tetrahydro-[1,1′-biphenyl]-2-yl)-5-methylisoxazole-3-carboxamide], 1e-07 to 1e-06 M.
Still for that read-out and setting: the result for `Cc1cc(C(=O)Nc2ccc(C3CCN(C(=O)CN(C)C)CC3)cc2C2=CCCCC2)no1` [Compound 84b, N-(5-(1-(dimethylglycyl)piperidin-4-yl)-2′,3′,4′,5′-tetrahydro-[1,1′-biphenyl]-2-yl)-5-methylisoxazole-3-carboxamide] reads 1e-07 to 1e-06 M.
Regarding `Cc1cc(C(=O)Nc2ccc(C3CC(C)(C)NC(C)(C)C3)cc2C2=CCCCC2)no1` [Compound 92a, 5-methyl-N-(5-(2,2,6,6-tetramethylpiperidin-4-yl)-2′,3′,4′,5′-tetrahydro-[1,1′-biphenyl]-2-yl)isoxazole-3-carboxamide], the IC50 at FMS (h) (Table 2, read-out: IC50 (μm)) is 1e-07 to 1e-06 M; on FMS (h) (setting [1]) it was less than 1e-07 M.
For the compound `Cc1cc(C(=O)Nc2ccc(C3CC(C)(C)NC(C)(C)C3)cc2C2=CCC(C)CC2)no1` (stereo not drawn) [Compound 92b, 5-methyl-N-(4′-methyl-5-(2,2,6,6-tetramethylpiperidin-4-yl)-2′,3′,4,5′-tetrahydro-[1,1′-biphenyl]-2-yl)isoxazole-3-carboxamide], the “kinase selectivity of EMS and FLT3” value in the data set on EMS and FLT3 is “high selectivity”. Besides, the IC50 at FMS (h) (Table 2, read-out: IC50 (μm)) is less than 1e-07 M; on FMS (h) (setting [1]), less than 1e-07 M.
With `Cc1cc(C(=O)Nc2ccc(C3CC(C)(C)NC(C)(C)C3)cc2C2=CCC(C)(C)CC2)no1` [Compound 92c, N-(4′,4′-dimethyl-5-(2,2,6,6-tetramethylpiperidin-4-yl)-2,3′,4′,5′-tetrahydro-[1,1′-biphenyl]-2-yl)-5-methylisoxazole-3-carboxamide], the IC50 at FMS (h) (Table 2, read-out: IC50 (μm)) was less than 1e-07 M; at FMS (h) (setting [1]), less than 1e-07 M.
For the compound `Cc1cc(C(=O)Nc2ccc(C3CC(C)(C)NC(C)(C)C3)cc2C2=CCCCCC2)no1` [Compound 92d, N-(2-(cyclohept-1-en-1-yl)-4-(2,2,6,6-tetramethylpiperidin-4-yl)phenyl)-5-methylisoxazole-3-carboxamide], the IC50 on FMS (h) (Table 2, read-out: IC50 (μm)) was 1e-07 to 1e-06 M; at FMS (h) (setting [1]), 1e-07 to 1e-06 M.
